In PubChem BioAssay (NCI):
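Grown in 96-well plates, cells were treated for 48 hours with each compound at five concentrations. Insufficient inhibition: endpoint recorded as highest concentration tested. TGI marks complete inhibition of growth.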

Tests used:
Test in all cases: inhibition of tumour cell growth, NCI panel, 48 h
SNB-78 CNS = tested on: SNB-78 CNS
HOP-62 NSCLC = tested on: HOP-62 NSCLC
TK-10 renal = tested on: TK-10 renal
SK-MEL-2 melanoma = tested on: SK-MEL-2 melanoma
NCI-H226 lung = tested on: NCI-H226 lung
KM12 colon = tested on: KM12 colon
SK-MEL-5 melanoma = tested on: SK-MEL-5 melanoma
LXFL 529 NSCLC = tested on: LXFL 529 NSCLC
HL-60(TB) leukemia = tested on: HL-60(TB) leukemia
NCI-H460 lung = tested on: NCI-H460 lung
MALME-3M melanoma = tested on: MALME-3M melanoma
OVCAR-8 ovarian = tested on: OVCAR-8 ovarian
CCRF-CEM leukemia = tested on: CCRF-CEM leukemia
SF-295 CNS = tested on: SF-295 CNS
A498 renal = tested on: A498 renal
SF-539 CNS = tested on: SF-539 CNS
KM20L2 colon = tested on: KM20L2 colon
NCI-H23 lung = tested on: NCI-H23 lung
HCC-2998 colon = tested on: HCC-2998 colon
786-0 renal = tested on: 786-0 renal
SK-MEL-28 melanoma = tested on: SK-MEL-28 melanoma
IGROV1 ovarian = tested on: IGROV1 ovarian
K-562 leukemia = tested on: K-562 leukemia
RXF 393 renal = tested on: RXF 393 renal
SF-268 CNS = tested on: SF-268 CNS
M19-MEL melanoma = tested on: M19-MEL melanoma
SK-OV-3 ovarian = tested on: SK-OV-3 ovarian
ACHN renal = tested on: ACHN renal
LOX IMVI melanoma = tested on: LOX IMVI melanoma
UO-31 renal = tested on: UO-31 renal
OVCAR-3 ovarian = tested on: OVCAR-3 ovarian
RPMI-8226 leukemia = tested on: RPMI-8226 leukemia
HCT-15 colon = tested on: HCT-15 colon
NCI-H522 lung = tested on: NCI-H522 lung
UACC-62 melanoma = tested on: UACC-62 melanoma
HT29 colon = tested on: HT29 colon
OVCAR-4 ovarian = tested on: OVCAR-4 ovarian
DLD-1 colon = tested on: DLD-1 colon
DMS 114 small cell lung = tested on: DMS 114 small cell lung
SN12C renal = tested on: SN12C renal
UACC-257 melanoma = tested on: UACC-257 melanoma
HCT-116 colon = tested on: HCT-116 colon
M14 melanoma = tested on: M14 melanoma
OVCAR-5 ovarian = tested on: OVCAR-5 ovarian
DMS 273 small cell lung = tested on: DMS 273 small cell lung
COLO 205 colon = tested on: COLO 205 colon
U251 CNS = tested on: U251 CNS
SNB-75 CNS = tested on: SNB-75 CNS
MOLT-4 leukemia = tested on: MOLT-4 leukemia
A549 NSCLC = tested on: A549 NSCLC

O=C(CSc1nnc(Cc2ccccc2)o1)Nc1ccc([N+](=O)[O-])cc1
TGI (SNB-78 CNS): > 100 µM
TGI (HOP-62 NSCLC): > 100 µM
TGI (TK-10 renal): > 100 µM
TGI (SK-MEL-2 melanoma): > 100 µM
TGI (NCI-H226 lung): > 100 µM
TGI (KM12 colon): > 100 µM
TGI (SK-MEL-5 melanoma): > 100 µM
TGI (LXFL 529 NSCLC): > 100 µM
TGI (HL-60(TB) leukemia): > 100 µM
TGI (NCI-H460 lung): > 100 µM
TGI (MALME-3M melanoma): > 100 µM
TGI (OVCAR-8 ovarian): > 100 µM
TGI (CCRF-CEM leukemia): > 100 µM
TGI (SF-295 CNS): > 100 µM
TGI (A498 renal): > 100 µM
TGI (SF-539 CNS): > 100 µM
TGI (KM20L2 colon): > 100 µM
TGI (NCI-H23 lung): > 100 µM
TGI (HCC-2998 colon): > 100 µM
TGI (786-0 renal): > 100 µM
TGI (SK-MEL-28 melanoma): > 100 µM
TGI (IGROV1 ovarian): > 100 µM
TGI (K-562 leukemia): > 100 µM
TGI (RXF 393 renal): > 100 µM
TGI (SF-268 CNS): > 100 µM
TGI (M19-MEL melanoma): > 100 µM
TGI (SK-OV-3 ovarian): > 100 µM
TGI (ACHN renal): > 100 µM
TGI (LOX IMVI melanoma): > 100 µM
TGI (UO-31 renal): > 100 µM
TGI (OVCAR-3 ovarian): > 100 µM
TGI (RPMI-8226 leukemia): > 100 µM
TGI (HCT-15 colon): > 100 µM
TGI (NCI-H522 lung): > 100 µM
TGI (UACC-62 melanoma): > 100 µM
TGI (HT29 colon): > 100 µM
TGI (OVCAR-4 ovarian): > 100 µM
TGI (DLD-1 colon): > 100 µM
TGI (DMS 114 small cell lung): 72.2 µM
TGI (SN12C renal): > 100 µM
TGI (UACC-257 melanoma): > 100 µM
TGI (HCT-116 colon): > 100 µM
TGI (M14 melanoma): > 100 µM
TGI (OVCAR-5 ovarian): > 100 µM
TGI (DMS 273 small cell lung): > 100 µM
TGI (COLO 205 colon): > 100 µM
TGI (U251 CNS): > 100 µM
TGI (SNB-75 CNS): > 100 µM
TGI (MOLT-4 leukemia): > 100 µM
TGI (A549 NSCLC): > 100 µM
